Data on one substance can be found in patent US20090155875A1, “Methods to Enhance Carbon Monoxide Dehydrogenase Activity and Uses Thereof” (priority 2005, published 2009).

In one experiment the test system is CODH. The experiment in a line: CODH activity by reduction of methyl viologen coupled to CO oxidation (absorption at 578 nm). It is filed as biochemical, R. rubrum. As to the method:
CODH activity was determined by the reduction of methyl viologen coupled to CO oxidation and the concomitant absorption at 578 nm by UV spectrophotometry. CODH activity was measured in an anaerobic reaction mixture containing 50 mM Tris-HCl, 2 mM methyl viologen and 2 mM dithiothreitol at pH 8.7 (Maness, P. C. and Weaver, P. F. (2002) Int. J. Hydrogen Energy 27:1407-11). The cell free, CODH-enriched fraction was prepared as described (Maness, P. C. and Weaver, P. F. (2001) Appl. Microbiol. Biotechnol. 57:751-6). The supernatant was used as the source of CODH enzyme.

The test system of a further experiment is Hydrogenase. The experiment in a line: Hydrogenase activity in whole cells by H2 evolution (gas chromatography). The format is cell-based, R. rubrum. As to the method: Hydrogenase activity was determined using whole cells by measuring H2 evolution in an anaerobic reaction mixture containing 2 mM methyl viologen, 0.1% (w/v) Triton X-100 and 50 mM potassium phosphate buffer at pH 7.0. The reaction was initiated by adding 5 mM sodium dithionite. The reaction was incubated 15 minutes at 30° C. in a shaking water bath. The reaction was terminated by addition of 0.1 ml 10% (w/v) tricholoroacetic acid. Hydrogen in the gas phase was determined by gas chromatography as described in Maness, P. C. and Weaver, P. F. (2001) Appl. Microbiol. Biotechnol. 57:751-6.

Chain of CODH (P31896 2-639): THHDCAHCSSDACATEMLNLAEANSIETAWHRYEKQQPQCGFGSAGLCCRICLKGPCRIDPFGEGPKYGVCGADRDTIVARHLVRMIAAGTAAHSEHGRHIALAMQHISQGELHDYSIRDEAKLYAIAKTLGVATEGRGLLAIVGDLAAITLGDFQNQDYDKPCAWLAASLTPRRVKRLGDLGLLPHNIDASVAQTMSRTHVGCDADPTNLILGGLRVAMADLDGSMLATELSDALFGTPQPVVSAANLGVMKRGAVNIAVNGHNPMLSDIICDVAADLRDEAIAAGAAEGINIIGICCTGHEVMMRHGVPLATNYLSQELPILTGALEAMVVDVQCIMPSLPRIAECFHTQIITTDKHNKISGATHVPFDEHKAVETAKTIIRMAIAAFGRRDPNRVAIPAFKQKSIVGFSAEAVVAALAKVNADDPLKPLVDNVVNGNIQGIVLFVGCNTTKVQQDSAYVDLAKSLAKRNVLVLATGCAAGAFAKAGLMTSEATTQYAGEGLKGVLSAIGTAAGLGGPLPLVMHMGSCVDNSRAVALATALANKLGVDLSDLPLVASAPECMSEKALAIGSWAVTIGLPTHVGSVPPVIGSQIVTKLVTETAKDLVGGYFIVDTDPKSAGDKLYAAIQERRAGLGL

Regarding “hemoglobin: human α- and β-globin chains encoded in pHE2 plasmid; purified from E. coli and added, or expressed in the cells”, the CODH activity is reported as 32.41±4.03 μmol methyl viologen reduction/min/ml with CODH (addition of hemoglobin (soluble, final 1.5 μM heme), untreated 17.76±2.85, p<9×10^−6) and 29.60±7.30 μMol methyl viologen reduction/min/ml in the experiment on CODH (expression of hemoglobin in the cells (pHE2 plasmid, IPTG induced), p<0.005). Further, the hydrogenase activity is given as 250.4±89.1 nMol H2/min/mg cell dry weight in the experiment with Hydrogenase (expression of hemoglobin in the cells, p<0.02) and 266.9±27.0 nMol H2/min/mg cell dry weight with Hydrogenase (first statement, printed as 'hemoglobin expression', untreated 137.6±15.0, p<2×10^−6).
